Assay results as given in patent US20260048051A1, “TREATMENT OF INFLAMMATORY BOWEL DISEASE” (Atomwise Inc., priority 2024, published 2026).
Read-outs that look alike come from different tables or passages of the source.

Assay: Plasma and tissue distribution in SD rats
Assay type: in vivo
Settings: for Tissue/Plasma Ratio (AUCinf) / Kp: SD rat; for Kp / AUC(0-t): rat; for Kp: oral, read-out: Tissue/Plasma Ratio (AUCinf); for AUC(0-t): read-out: AUClast; for AUC0-inf: read-out: AUCINF_obs
Excerpt: The following Example describes the methods and data used to evaluate the tissue distribution of TYK2 inhibitors following the administration of either compound 1 or compound 2.
Thirty (30, 15/sex) SD rats supplied by Beijing Vital River Laboratory Animal Technology Co., Ltd. were used in this study. The animals were confirmed to be healthy before being assigned to the study. The room (s) was controlled and monitored for relative humidity (targeted mean range 40% to 70%) and temperature (targeted mean range 20° C. to 26° C.) with 15 or above air changes/hour. The room was on a 12-hour light/dark cycle except when interruptions were necessitated by study activities. Fresh drinking water (reverses osmosis) was available to all animals, ad libitum. Certified animal diet from certified vendor was available to all animals, ad libitum.
Animals were weighed prior to dose administration to calculate the actual dose volume. The body weights were in the range from 245.39 to 276.33 g for males and 182.29 to 215.69 g for females on the first dosing day. The animals in Groups 1 and 2 received a single oral gavage administration of test compound 1. Cage-side observations for the general health condition and appearance of the animal were performed before and after dosing and at each time point of sample collection. Unusual observations were recorded throughout the duration of the study.
The vehicle was 0.5% methyl cellulose (4000 cps) in water. The formulation was prepared according to the following steps. Group 1: 25.95 mg of compound 1 was weighed into a glass vial. 5000 μL of vehicle was added into the vial and stirred for 30 min at 1700 rpm to get a homogenous opaque suspension. 5000 μL of vehicle was added into the vial and stirred for 10 min at 1700 rpm to get a homogenous opaque suspension. 5000 μL+5000 μL+5000 μL+924 μL of vehicle was added into the vial and stirred for 10 min at 1700 rpm to get a homogenous opaque suspension. Group 2: 81.66 mg of compound 1 was weighed into a glass vial. 5000 μL of vehicle was added into the vial and stirred for 30 min at 1700 rpm to get a homogenous opaque suspension. 5000 μL of vehicle was added into the vial and stirred for 10 min at 1700 rpm to get a homogenous opaque suspension. 10 mL+10 mL+10 mL+20 mL+10 mL+10 mL+1580 μL of vehicle was added into the vial and stirred for 10 min at 1700 rpm to get a homogenous opaque suspension.
Blood (about 0.2 mL) was collected at each time point via jugular vein puncture from each study animal. The actual time for each sample collection was recorded. The acceptable deviations on sampling time were ±1 min for the time points pre-dose through 1 hour post-dose, and +5% of the nominal time for time points after 1 hour post-dose.
All blood samples were transferred into commercial tubes containing K2-EDTA. After blood was collected, the samples were placed on wet ice and processed for plasma within 60 minutes of collection by centrifugation at approximately 4° C., 3200×g for 10 minutes, and then quickly frozen over dry ice and kept at −60° C. or lower until LC-MS/MS analysis.
Following terminal blood sample collection, animals were conducted CO2 euthanasia, the chest and abdominal cavities were opened carefully lengthwise using scissors to expose the internal organs in preparation of tissue perfusion. A needle was used to puncture a small hole into the left ventricle of the heart, and then clamped with a hemostat. […] Fluid (cold 1×PBS) was infused until the liver pales (typically 2-3 minutes). Following perfusion, 14 kinds of tissues (spleen, bone marrow, adipose, brain, heart, kidney, liver, lung, skin, small intestine, large intestine, eye, gonads, and bladder) were collected from each animal, respectively.
Each tissue was weighed and homogenized on wet ice using homogenizing buffer (MeOH/15 mM PBS 1:2) at the ratio of 1:9 (1 g tissue with 9 mL buffer). The tissue homogenate was kept at −60° C. or lower until LC-MS/MS analysis. […]

[1] = female, Sprague-Dawley (SD), large intestine, F SD rat, L. Intestine
[2] = female, Sprague-Dawley (SD), F SD rat, Bone Marrow
[3] = female, Sprague-Dawley (SD), F SD rat, Brain
[4] = female, Sprague-Dawley (SD), F SD rat, Eye
[5] = female, Sprague-Dawley (SD), F SD rat, Heart
[6] = female, Sprague-Dawley (SD), F SD rat, Kidney
[7] = female, Sprague-Dawley, F SD rat, Adipose
[8] = female, Sprague-Dawley, F SD rat, Bladder
[9] = female, Sprague-Dawley, F SD rat, Spleen
[10] = female, small intestine, F SD rat, S. Intestine
[11] = male, Sprague-Dawley (SD), large intestine, M SD rat, L. Intestine
[12] = male, Sprague-Dawley (SD), M SD rat, Brain
[13] = male, Sprague-Dawley (SD), M SD rat, Eye
[14] = male, Sprague-Dawley (SD), M SD rat, Heart
[15] = male, Sprague-Dawley (SD), M SD rat, Kidney
[16] = male, Sprague-Dawley, M SD rat, Adipose
[17] = male, Sprague-Dawley, M SD rat, Bladder
[18] = male, Sprague-Dawley, M SD rat, Skin
[19] = male, Sprague-Dawley, M SD rat, Spleen
[20] = male, Sprague-Dawley, M SD rat, Testis
[21] = male, small intestine, M SD rat, S. Intestine

Work on `C[C@@H](c1ccc(Nc2cc(Nc3ncc(F)cc3S(C)(=O)=O)ncn2)nc1)N1CC2(COC2)C1` [Compound 2, (S)—N^4-(5-(1-(2-oxa-6-azaspiro[3.3]heptan-6-yl)ethyl)pyridin-2-yl)-N^6-(5-fluoro-3-(methylsulfonyl)pyridin-2-yl)pyrimidine-4,6-diamine] yielded an HL_Lambda_z (F SD rat, Adipose) of 2.78 h, an HL_Lambda_z (F SD rat, Bladder) of 2.37 h and an HL_Lambda_z (F SD rat, Bone Marrow) of 2.26 h. The HL_Lambda_z (F SD rat, Eye) was 6.23 h, the HL_Lambda_z (F SD rat, Kidney) was 2.34 h and the HL_Lambda_z (F SD rat, L. Intestine) was 4.97 h. For the same molecule, the HL_Lambda_z (F SD rat, Liver) was 2.31 h, the HL_Lambda_z (F SD rat, Lung) was 2.26 h and the HL_Lambda_z (F SD rat, Plasma) was 3.20 h. The HL_Lambda_z (F SD rat, S. Intestine) was 2.06 h, the HL_Lambda_z (F SD rat, Skin) was 5.71 h and the HL_Lambda_z (F SD rat, Spleen) was 2.29 h. It also gave an HL_Lambda_z (M SD rat, Bladder) of 2.13 h, an HL_Lambda_z (M SD rat, Kidney) of 3.28 h and an HL_Lambda_z (M SD rat, Plasma) of 2.21 h. It also gave an HL_Lambda_z (M SD rat, S. Intestine) of 2.05 h, an HL_Lambda_z (M SD rat, Skin) of 2.43 h and an HL_Lambda_z (M SD rat, Spleen) of 2.24 h. The “Tissue/Plasma Ratio (AUCinf)” value (Kidney) was 13, the “Tissue/Plasma Ratio (AUCinf)” value (Large Intestine) was 23 and the Kp (Sprague-Dawley (SD), bone marrow / plasma, Bone Marrow) was 9.6. The Kp (Sprague-Dawley, adipose, Adipose) was 4.5, the Kp (Sprague-Dawley, bladder, Bladder) was 8.7 and the Kp (Sprague-Dawley, eye, Eye) was 1.2. It also gave a Kp (Sprague-Dawley, kidney, Kidney) of about 13, a Kp (Sprague-Dawley, large intestine, Large Intestine) of about 23 and a Kp (Sprague-Dawley, liver, Liver) of 8.7. For the same molecule, the Kp (Sprague-Dawley, lung, Lung) was 7.1, the Kp (Sprague-Dawley, skin, Skin) was 2.5 and the Kp (Sprague-Dawley, small intestine, Small Intestine) was 27. For the same molecule, the Kp (Sprague-Dawley, spleen, Spleen) was 12, the AUC(0-t) (female, SD, bone marrow, F SD rat, Bone Marrow) was 38700 ng·h/mL and the AUC(0-t) (female, SD, lung, F SD rat, Lung) was 29400 ng·h/mL. It also gave an AUC(0-t) (female, SD, ovaries, F SD rat, Ovaries) of 4360 ng·h/mL, an AUC(0-t) (female, SD, plasma, F SD rat, Plasma) of 4120 ng·h/mL and an AUC(0-t) (female, SD, skin, F SD rat, Skin) of 8430 ng·h/mL. The AUC(0-t) (female, SD, small intestine, F SD rat, S. Intestine) was 110000 ng·h/mL, the Tmax [1] was 120 min and the AUC(0-t) (female, Sprague-Dawley (SD), eye, F SD rat, Eye) was 4880 ng·h/mL. It also gave an AUC(0-t) (female, Sprague-Dawley (SD), heart, F SD rat, Heart) of 8990 ng·h/mL, an AUC(0-t) (female, Sprague-Dawley (SD), kidney, F SD rat, Kidney) of 51800 ng·h/mL and an AUC(0-t) [1] of 95000 ng·h/mL. For the same molecule, the Cmax [2] was 3080 ng/mL, the Tmax [2] was 30 min and the AUC0-inf [2] was 38300 ng·h/mL. The Cmax [3] was 104 ng/mL, the Tmax [3] was 30 min and the Cmax [4] was 700 ng/mL. It also gave a Tmax [4] of 30 min, an AUC0-inf [4] of 4910 ng·h/mL and a Cmax [5] of 2500 ng/mL. The Tmax [5] was 30 min, the Cmax [6] was 9870 ng/mL and the Tmax [6] was 30 min. For the same molecule, the AUC0-inf [6] was 51800 ng·h/mL, the AUC(0-t) (female, Sprague-Dawley, adipose, F SD rat, Adipose) was 18700 ng·h/mL and the AUC(0-t) (female, Sprague-Dawley, bladder, F SD rat, Bladder) was 18600 ng·h/mL. It also gave an AUC(0-t) (female, Sprague-Dawley, spleen, F SD rat, Spleen) of 43400 ng·h/mL, a Cmax [7] of 4310 ng/mL and a Tmax [7] of 30 min. The Cmax [8] was 2650 ng/mL, the Tmax [8] was 30 min and the AUC0-inf [8] was 18600 ng·h/mL. It also gave a Cmax [9] of 12500 ng/mL, a Tmax [9] of 30 min and a Cmax [10] of 24800 ng/mL. It also gave a Tmax [10] of 30 min, an AUC0-inf [10] of 130000 ng·h/mL and a Tmax (female, F SD rat, Liver) of 30 min. The AUC0-inf (female, F SD rat, Liver) was 35900 ng·h/mL, the Cmax (female, F SD rat, Lung) was 3070 ng/mL and the Tmax (female, F SD rat, Lung) was 30 min. The AUC0-inf (female, F SD rat, Lung) was 29500 ng·h/mL, the Cmax (female, F SD rat, Ovaries) was 1940 ng/mL and the Tmax (female, F SD rat, Ovaries) was 30 min. It also gave a Cmax (female, F SD rat, Plasma) of 625 ng/mL, a Tmax (female, F SD rat, Plasma) of 480 min and an AUC0-inf (female, F SD rat, Plasma) of 4140 ng·h/mL. For the same molecule, the Cmax (female, F SD rat, Skin) was 1180 ng/mL, the Tmax (female, F SD rat, Skin) was 30 min and the AUC0-inf (female, F SD rat, Skin) was 8450 ng·h/mL. It also gave an AUC(0-t) (male, SD, liver, M SD rat, Liver) of 14700 ng·h/mL, an AUC(0-t) (male, SD, lung, M SD rat, Lung) of 18200 ng·h/mL and an AUC(0-t) (male, SD, skin, M SD rat, Skin) of 7820 ng·h/mL. It also gave a Cmax [11] of 7320 ng/mL, a Tmax [11] of 480 min and an AUC(0-t) (male, Sprague-Dawley (SD), bone marrow, M SD rat, Bone Marrow) of 19600 ng·h/mL. The AUC(0-t) (male, Sprague-Dawley (SD), brain, M SD rat, Brain) was 273 ng·h/mL, the AUC(0-t) (male, Sprague-Dawley (SD), heart, M SD rat, Heart) was 2880 ng·h/mL and the AUC(0-t) (male, Sprague-Dawley (SD), kidney, M SD rat, Kidney) was 32600 ng·h/mL. The Tmax (male, Sprague-Dawley (SD), M SD rat, Bone Marrow) was 30 min, the Cmax [12] was 68.9 ng/mL and the Tmax [12] was 30 min. For the same molecule, the Cmax [13] was 535 ng/mL, the Tmax [13] was 156 min and the Cmax [14] was 2520 ng/mL. The Tmax [14] was 30 min, the Cmax [15] was 9620 ng/mL and the Tmax [15] was 30 min. The AUC0-inf [15] was 32600 ng·h/mL, the Cmax (male, Sprague-Dawley (SD), M SD rat, Liver) was 6340 ng/mL and the AUC(0-t) (male, Sprague-Dawley, adipose, M SD rat, Adipose) was 12200 ng·h/mL. For the same molecule, the AUC(0-t) (male, Sprague-Dawley, bladder, M SD rat, Bladder) was 36200 ng·h/mL, the AUC(0-t) (male, Sprague-Dawley, spleen, M SD rat, Spleen) was 25700 ng·h/mL and the AUC(0-t) (male, Sprague-Dawley, testis, M SD rat, Testis) was 5090 ng·h/mL. It also gave a Cmax [16] of 3900 ng/mL, a Tmax [16] of 30 min and a Cmax [17] of 6820 ng/mL. It also gave a Tmax [17] of 33.6 min, an AUC0-inf [17] of 36300 ng·h/mL and a Tmax [18] of 30 min. For the same molecule, the AUC0-inf [18] was 8020 ng·h/mL, the Cmax [19] was 6860 ng/mL and the Tmax [19] was 30 min. The Cmax [20] was 318 ng/mL, the Tmax [20] was 480 min and the Cmax [21] was 28900 ng/mL. The Tmax [21] was 30 min, the Cmax (male, M SD rat, Bone Marrow) was 4530 ng/mL and the Tmax (male, M SD rat, Liver) was 30 min. It also gave a Cmax (male, M SD rat, Lung) of 4410 ng/mL, a Tmax (male, M SD rat, Lung) of 30 min and a Cmax (male, M SD rat, Plasma) of 509 ng/mL. The Tmax (male, M SD rat, Plasma) was 180 min, the AUC0-inf (male, M SD rat, Plasma) was 2680 ng·h/mL and the Cmax (male, M SD rat, Skin) was 1460 ng/mL.
